These are literature values, as cited in patent US8003690B2, “Topical nanoparticulate spironolactone formulation” (Jagotec AG, priority 2002, dated 2011).

With `CC(=O)S[C@@H]1CC2=CC(=O)CC[C@]2(C)[C@H]2CC[C@@]3(C)[C@@H](CC[C@@]34CCC(=O)O4)[C@H]12` [Spironolactone], the solubility in water is 2.8 mg/100 ml.
